Assay results reported in EP0551518A1, “QUINOLINECARBOXYLIC ACID DERIVATIVE” (NIPPON SHINYAKU COMPANY, LIMITED, priority 1990, dated 1992).
≈ marks a conversion by molar mass, not a printed value. Read-outs that look alike come from different tables or passages of the source.

Columns and labels:
Assay in all cases: Determination of minimal inhibitory concentration of growth (MIC)-1, agar plate dilution method
Assay type in all cases: cell-based
[1] = system: Bacillus subtilis ATCC 6633
Method: (§1) Method: MIC was determined by the agar plate dilution method in accordance with the standard protocol of Japan Society of Chemotherapy (cf. Chemotherapy 29 (1), 76-79, 1981). Each bacterial culture obtained by 18-hour incubation in a sensitivity assay bouillon medium at 37°C was diluted to 10⁶ CFU/ml with the same medium. Using a microplanter, a sensitivity assay agar medium containing the test drug was inoculated with the diluted culture and incubated at 37°C for 18 hours. The MIC value was then determined. As reference drugs, 6-fluoro-1-methyl-4-oxo-7-(1-piperazinyl)-4H-[1,3]thiazeto[3,2-a]quinoline-3-carboxylic acid (referred to as control), ciprofloxacin (CPFX) and ofloxacin (OFLX) were used.

[2] = system: Enterococcus faecalis ATCC 29212
Method: as §1

[3] = system: Escherichia coli KC-14; conditions: Escherichia coli, KC14, 18 h, 10⁶ CFU/ml, 37°C, read-out: MIC
Method: as §1

[4] = system: Micrococcus luteus ATCC 9341
Method: as §1

[5] = system: Proteus vulgaris HX-19; conditions: Proteus vulgaris, HX19, 18 h
Method: as §1

[6] = system: Pseudomonas aeruginosa IFO 3445; conditions: Pseudomonas aeruginosa, IFO3445, 18 h
Method: as §1

[7] = system: Staphylococcus aureus 209-P JC-1; conditions: Staphylococcus aureus, 209P, 18 h
Method: as §1

[8] = system: Staphylococcus aureus OWPH 1984 (MRSA); conditions: Staphylococcus aureus, MRSA, 18 h
Method: as §1

[9] = system: Staphylococcus aureus OWPH 2125 (MRSA, PCA^r ); conditions: Staphylococcus aureus, MRSA, 18 h
Method: as §1

[10] = system: Staphylococcus aureus Smith
Method: as §1

[11] = system: Staphylococcus epider-midis IFO 12993; conditions: Staphylococcus, IFO12993, 18 h
Method: as §1

[12] = ATCC6633, Bacillus subtilis ATCC 6633, agar plate dilution, 10⁶ CFU/ml, 37°C, 18 hours, read-out: MIC
[13] = ATCC29212, Enterococcus faecalis ATCC 29212, agar plate dilution, 10⁶ CFU/ml, 37°C, 18 hours, read-out: MIC
[14] = ATCC9341, Micrococcus luteus ATCC 9341, agar plate dilution, 10⁶ CFU/ml, 37°C, 18 hours, read-out: MIC
[15] = Proteus vulgaris HX-19, agar plate dilution, 10⁶ CFU/ml, 37°C, 18 hours, read-out: MIC
[16] = Pseudomonas aeruginosa IFO 3445, agar plate dilution, 10⁶ CFU/ml, 37°C, 18 hours, read-out: MIC
[17] = Staphylococcus aureus 209-P JC-1, agar plate dilution, 10⁶ CFU/ml, 37°C, 18 hours, read-out: MIC
[18] = Staphylococcus aureus OWPH 1984 (MRSA), agar plate dilution, 10⁶ CFU/ml, 37°C, 18 hours, read-out: MIC
[19] = Staphylococcus aureus OWPH 2125 (MRSA, PCA^r), agar plate dilution, 10⁶ CFU/ml, 37°C, 18 hours, read-out: MIC
[20] = Staphylococcus aureus Smith, agar plate dilution, 10⁶ CFU/ml, 37°C, 18 hours, read-out: MIC
[21] = Staphylococcus epider-midis IFO 12993, agar plate dilution, 10⁶ CFU/ml, 37°C, 18 hours, read-out: MIC

Compound | MIC [1, 12] | MIC [2, 13] | MIC [3] | MIC [4, 14] | MIC [5, 15] | MIC [6, 16] | MIC [7, 17] | MIC [8, 18] | MIC [9, 19] | MIC [10, 20] | MIC [11, 21] | further results
CC1COc2c(N3CCN(C)CC3)c(F)cc3c(=O)c(C(=O)O)cn1c23 (racemic) [OFLX, ofloxacin, reference compound] | 0.1 µg/mL (≈ 0.277 µM) | 1.56 µg/mL (≈ 4.32 µM) | 0.05 µg/mL (≈ 0.138 µM) | 3.13 µg/mL (≈ 8.66 µM) | 0.05 µg/mL (≈ 0.138 µM) | 0.78 µg/mL (≈ 2.16 µM) | 0.39 µg/mL (≈ 1.08 µM) | 0.39 µg/mL (≈ 1.08 µM) | 6.25 µg/mL (≈ 17.3 µM) | 0.2 µg/mL (≈ 0.553 µM) | 0.39 µg/mL (≈ 1.08 µM) | 
O=C(O)c1cn(C2CC2)c2cc(N3CCNCC3)c(F)cc2c1=O [CPFX, ciprofloxacin, reference compound] |  |  | 0.025 µg/mL (≈ 0.0754 µM) |  |  |  |  |  |  |  |  | MIC ([1]; Bacillus subtilis, ATCC6633, 18 h): 0.05 µg/mL (≈ 0.151 µM); MIC ([2]; Enterococcus faecalis, ATCC29212, 18 h): 1.56 µg/mL (≈ 4.71 µM); MIC ([4]; Micrococcus luteus, ATCC9341, 18 h): 0.39 µg/mL (≈ 1.18 µM); MIC [5]: 0.025 µg/mL (≈ 0.0754 µM); MIC [6]: 0.2 µg/mL (≈ 0.604 µM); MIC [7]: 0.2 µg/mL (≈ 0.604 µM); MIC [8]: 0.39 µg/mL (≈ 1.18 µM); MIC [9]: 12.5 µg/mL (≈ 37.7 µM); MIC ([10]; Staphylococcus aureus, 18 h): 0.2 µg/mL (≈ 0.604 µM); MIC [11]: 0.39 µg/mL (≈ 1.18 µM)
CC1Sc2c(C(=O)O)c(=O)c3cc(F)c(-c4ccccc4)cc3n21 (stereo not drawn) [Example 5, 6-Fluoro-1-methyl-4-oxo-7-phenyl-4H-[1,3]thiazeto[3,2-a]quinoline-3-carboxylic acid] | ≤ 0.006 µg/mL | 0.1 µg/mL (≈ 0.293 µM) | 0.1 µg/mL (≈ 0.293 µM) | 0.39 µg/mL (≈ 1.14 µM) | 0.05 µg/mL (≈ 0.146 µM) | 0.2 µg/mL (≈ 0.586 µM) | 0.025 µg/mL (≈ 0.0732 µM) | 0.012 µg/mL (≈ 0.0352 µM) | 0.05 µg/mL (≈ 0.146 µM) | ≤ 0.006 µg/mL | 0.025 µg/mL (≈ 0.0732 µM) | 
O=C(O)c1c2n(c3cc(-c4ccccc4)c(F)cc3c1=O)CS2 [Example 18, 6-Fluoro-4-oxo-7-phenyl-4H-[1,3]thiazeto[3,2-a]quinoline-3-carboxylic acid] | ≤ 0.006 µg/mL | 0.39 µg/mL (≈ 1.19 µM) | 0.2 µg/mL (≈ 0.611 µM) | 6.25 µg/mL (≈ 19.1 µM) | 0.025 µg/mL (≈ 0.0764 µM) | 0.39 µg/mL (≈ 1.19 µM) | 0.012 µg/mL (≈ 0.0367 µM) | 0.025 µg/mL (≈ 0.0764 µM) | 0.2 µg/mL (≈ 0.611 µM) | ≤ 0.006 µg/mL | 0.1 µg/mL (≈ 0.305 µM) | 
O=C(O)c1c2n(c3c(F)c(-c4ccccc4)c(F)cc3c1=O)CS2 [Example 19, 6,8-Difluoro-4-oxo-7-phenyl-4H-[1,3]thiazeto[3,2-a]quinoline-3-carboxylic acid] | ≤ 0.006 µg/mL | 0.2 µg/mL (≈ 0.579 µM) | 0.1 µg/mL (≈ 0.29 µM) | 6.25 µg/mL (≈ 18.1 µM) | 0.012 µg/mL (≈ 0.0347 µM) | 0.78 µg/mL (≈ 2.26 µM) | 0.012 µg/mL (≈ 0.0347 µM) | 0.025 µg/mL (≈ 0.0724 µM) | 0.2 µg/mL (≈ 0.579 µM) | ≤ 0.006 µg/mL | 0.025 µg/mL (≈ 0.0724 µM) | 
COc1c(-c2ccccc2)c(F)cc2c(=O)c(C(=O)O)c3n(c12)CS3 [Example 21, 6-Fluoro-8-methoxy-4-oxo-7-phenyl-4H-[1,3]thiazeto[3,2-a]quinoline-3-carboxylic acid] | 0.025 µg/mL (≈ 0.07 µM) | 0.39 µg/mL (≈ 1.09 µM) | 0.78 µg/mL (≈ 2.18 µM) | 3.13 µg/mL (≈ 8.76 µM) | 0.39 µg/mL (≈ 1.09 µM) | 6.25 µg/mL (≈ 17.5 µM) | 0.05 µg/mL (≈ 0.14 µM) | 0.025 µg/mL (≈ 0.07 µM) | 0.39 µg/mL (≈ 1.09 µM) | 0.05 µg/mL (≈ 0.14 µM) | 0.05 µg/mL (≈ 0.14 µM) | 
CC1Sc2c(C(=O)O)c(=O)c3cc(F)c(-c4ccccc4)c(F)c3n21 (stereo not drawn) [Example 24, 6,8-Difluoro-1-methyl-4-oxo-7-phenyl-4H-[1,3]thiazeto[3,2-a]quinoline-3-carboxylic acid] | ≤ 0.006 µg/mL | 0.05 µg/mL (≈ 0.139 µM) | 0.2 µg/mL (≈ 0.557 µM) | 0.39 µg/mL (≈ 1.09 µM) | 0.1 µg/mL (≈ 0.278 µM) | 0.39 µg/mL (≈ 1.09 µM) | 0.012 µg/mL (≈ 0.0334 µM) | 0.012 µg/mL (≈ 0.0334 µM) | 0.05 µg/mL (≈ 0.139 µM) | ≤ 0.006 µg/mL | 0.012 µg/mL (≈ 0.0334 µM) | 
COc1c(-c2ccc(N)cc2)c(F)cc2c(=O)c(C(=O)O)c3n(c12)C(C)S3 (stereo not drawn) [Example 27, 7-(4-Aminophenyl)-6-fluoro-8-methoxy-1-methyl-4-oxo-4H[1,3]thiazeto[3,2-a]quinoline-3-carboxylic acid] | ≤ 0.006 µg/mL | 0.05 µg/mL (≈ 0.129 µM) | 0.1 µg/mL (≈ 0.259 µM) | 0.1 µg/mL (≈ 0.259 µM) | 0.012 µg/mL (≈ 0.0311 µM) | 0.78 µg/mL (≈ 2.02 µM) | 0.012 µg/mL (≈ 0.0311 µM) | ≤ 0.006 µg/mL | ≤ 0.006 µg/mL | ≤ 0.006 µg/mL | ≤ 0.006 µg/mL | 
Nc1ccc(-c2cc3c(cc2F)c(=O)c(C(=O)O)c2n3CS2)cc1 [Example 31, 7-(4-Aminophenyl)-6-fluoro-4-oxo-4H-[1,3]thiazeto[3,2-a]quinoline-3-carboxylic acid] | ≤ 0.006 µg/mL | 0.1 µg/mL (≈ 0.292 µM) | 0.025 µg/mL (≈ 0.073 µM) | 1.56 µg/mL (≈ 4.56 µM) | ≤ 0.006 µg/mL | 0.2 µg/mL (≈ 0.584 µM) | 0.012 µg/mL (≈ 0.0351 µM) | 0.025 µg/mL (≈ 0.073 µM) | 0.2 µg/mL (≈ 0.584 µM) | ≤ 0.006 µg/mL | ≤ 0.006 µg/mL | 
COc1ccc(-c2cc3c(cc2F)c(=O)c(C(=O)O)c2n3C(C)S2)cc1 (stereo not drawn) [Example 38, 6-Fluoro-7-(4-methoxyphenyl)-1-methyl-4-oxo-4H-[1,3]th-iazeto[3,2-a]quinoline-3-carboxylic acid] | 0.012 µg/mL (≈ 0.0323 µM) | 0.2 µg/mL (≈ 0.539 µM) | 0.39 µg/mL (≈ 1.05 µM) | 0.39 µg/mL (≈ 1.05 µM) | 0.78 µg/mL (≈ 2.1 µM) | 1.56 µg/mL (≈ 4.2 µM) | 0.1 µg/mL (≈ 0.269 µM) | 0.025 µg/mL (≈ 0.0673 µM) | 0.2 µg/mL (≈ 0.539 µM) | 0.025 µg/mL (≈ 0.0673 µM) | 0.1 µg/mL (≈ 0.269 µM) | 
CC1Sc2c(C(=O)O)c(=O)c3cc(F)c(-c4ccc(O)cc4)cc3n21 (stereo not drawn) [Example 44, 6-Fluoro-7-(4-hydroxyphenyl)-1-methyl-4-oxo-4H-[1,3]thiazeto[3,2-a]quinoline-3-carboxylic acid] | ≤ 0.006 µg/mL | 0.1 µg/mL (≈ 0.28 µM) | 0.1 µg/mL (≈ 0.28 µM) | 0.1 µg/mL (≈ 0.28 µM) | 0.025 µg/mL (≈ 0.07 µM) | 0.2 µg/mL (≈ 0.56 µM) | ≤ 0.006 µg/mL | 0.012 µg/mL (≈ 0.0336 µM) | 0.05 µg/mL (≈ 0.14 µM) | ≤ 0.006 µg/mL | ≤ 0.006 µg/mL | 
CNc1ccc(-c2cc3c(cc2F)c(=O)c(C(=O)O)c2n3CS2)cc1 [Example 46, 6-Fluoro-7-(4-methylaminophenyl)-4-oxo-4H-[1,3]thiazeto[3,2-a]quinoline-3-carboxylic acid] | ≤ 0.006 µg/mL | 0.2 µg/mL (≈ 0.561 µM) | 0.1 µg/mL (≈ 0.281 µM) | 0.78 µg/mL (≈ 2.19 µM) | 0.025 µg/mL (≈ 0.0702 µM) | 0.78 µg/mL (≈ 2.19 µM) | 0.025 µg/mL (≈ 0.0702 µM) | 0.012 µg/mL (≈ 0.0337 µM) | 0.1 µg/mL (≈ 0.281 µM) | ≤ 0.006 µg/mL | 0.05 µg/mL (≈ 0.14 µM) | 
